Source: ChEMBL document CHEMBL4043296 (J Med Chem, 2018)

What was measured:
[1] = target: T1, Muscarinic acetylcholine receptor M1 (Homo sapiens) (UniProt P11229); assay: Antagonist activity at human SP/Myc epitope-tagged muscarinic M1 receptor expressed in HEK293T cells assessed as inhibition of carbachol-induced RLuc8-fused Galphaq activation preincubated for 15 mins followed by carbachol induction measured after 2 mins by BRET assay; format: cell-based; details: HEK-293T
T1 sequence (whole entry): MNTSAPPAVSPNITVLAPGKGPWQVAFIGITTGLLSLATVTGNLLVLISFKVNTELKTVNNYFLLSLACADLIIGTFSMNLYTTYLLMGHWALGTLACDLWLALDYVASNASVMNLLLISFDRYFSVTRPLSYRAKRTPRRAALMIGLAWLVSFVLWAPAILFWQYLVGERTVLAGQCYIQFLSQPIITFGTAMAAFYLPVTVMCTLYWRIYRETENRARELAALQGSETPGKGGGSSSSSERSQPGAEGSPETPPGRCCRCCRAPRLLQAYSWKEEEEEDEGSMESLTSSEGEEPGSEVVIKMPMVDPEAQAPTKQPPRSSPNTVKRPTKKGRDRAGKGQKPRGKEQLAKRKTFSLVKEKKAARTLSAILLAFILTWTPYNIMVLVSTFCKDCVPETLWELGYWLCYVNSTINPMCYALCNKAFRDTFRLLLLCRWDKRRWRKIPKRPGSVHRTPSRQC

[2] = target: T1, Muscarinic acetylcholine receptor M1 (Homo sapiens); assay: Antagonist activity at human SP/Myc epitope-tagged muscarinic M1 receptor expressed in HEK293T cells assessed as inhibition of carbachol-induced mVenus-fused beta-arrestin2 recruitment preincubated for 15 mins followed by carbachol induction measured after 2 mins by BRET assay; format: cell-based; details: HEK-293T
[3] = target: T2, Muscarinic acetylcholine receptor M4 (Homo sapiens) (UniProt P08173); assay: Antagonist activity at human SP/Myc epitope-tagged muscarinic M4 receptor expressed in HEK293T cells assessed as inhibition of carbachol-induced RLuc8-fused Galphaq activation preincubated for 15 mins followed by carbachol induction measured after 2 mins by BRET assay; format: cell-based; details: HEK-293T
T2 sequence (whole entry): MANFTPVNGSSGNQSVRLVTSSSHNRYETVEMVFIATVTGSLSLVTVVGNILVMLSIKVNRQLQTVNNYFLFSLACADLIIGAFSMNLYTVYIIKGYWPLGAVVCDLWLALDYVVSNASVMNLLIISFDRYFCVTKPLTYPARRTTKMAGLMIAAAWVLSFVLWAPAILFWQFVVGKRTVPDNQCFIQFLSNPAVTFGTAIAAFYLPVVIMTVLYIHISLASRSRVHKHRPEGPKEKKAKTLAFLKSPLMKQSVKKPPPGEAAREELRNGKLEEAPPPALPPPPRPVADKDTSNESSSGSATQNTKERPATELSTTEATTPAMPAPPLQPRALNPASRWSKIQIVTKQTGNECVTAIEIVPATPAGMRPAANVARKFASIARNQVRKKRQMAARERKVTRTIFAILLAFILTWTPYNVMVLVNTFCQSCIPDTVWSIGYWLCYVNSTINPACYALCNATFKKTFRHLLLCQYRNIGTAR

[4] = target: T2, Muscarinic acetylcholine receptor M4 (Homo sapiens); assay: Antagonist activity at human SP/Myc epitope-tagged muscarinic M4 receptor expressed in HEK293T cells assessed as inhibition of carbachol-induced mVenus-fused beta-arrestin2 recruitment preincubated for 15 mins followed by carbachol induction measured after 2 mins by BRET assay; format: cell-based; details: HEK-293T
[5] = target: D(2) dopamine receptor (Homo sapiens, UniProt P14416); assay: Displacement of [3H]N-methylspiperone from human dopamine D2 receptor expressed in HEK293 cell membranes after 1 hr by scintillation counting method
[6] = target: D(3) dopamine receptor (Homo sapiens, UniProt P35462); assay: Displacement of [3H]N-methylspiperone from human dopamine D3 receptor expressed in HEK293 cell membranes after 1 hr by scintillation counting method
[7] = target: T3, D(4) dopamine receptor (Homo sapiens, UniProt P21917); assay: Displacement of [3H]N-methylspiperone from human dopamine D4 receptor expressed in HEK293 cell membranes after 1 hr by scintillation counting method
T3 sequence (P21917 whole entry): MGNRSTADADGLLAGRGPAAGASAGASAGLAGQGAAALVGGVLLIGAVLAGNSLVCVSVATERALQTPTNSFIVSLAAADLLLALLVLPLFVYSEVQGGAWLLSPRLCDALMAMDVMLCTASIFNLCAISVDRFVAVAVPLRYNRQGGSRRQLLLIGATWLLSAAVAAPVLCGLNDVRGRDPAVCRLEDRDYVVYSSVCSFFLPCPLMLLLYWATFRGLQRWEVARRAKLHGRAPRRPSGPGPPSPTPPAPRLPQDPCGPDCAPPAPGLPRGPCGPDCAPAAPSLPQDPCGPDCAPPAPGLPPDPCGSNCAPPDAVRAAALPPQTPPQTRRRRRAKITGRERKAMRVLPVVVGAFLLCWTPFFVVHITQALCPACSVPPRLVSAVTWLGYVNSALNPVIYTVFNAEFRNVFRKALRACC

[8] = species: Homo sapiens; assay: Selectivity ratio of Ki for human dopamine D2 receptor to Ki for human dopamine D4 receptor
[9] = target: T4, Alpha-1A adrenergic receptor (Homo sapiens, UniProt P35348); assay: Displacement of [3H]prazosin from human recombinant alpha-1A adrenergic receptor expressed in CHO cell membranes after 30 mins by liquid scintillation counting method
T4 sequence (P35348 whole entry): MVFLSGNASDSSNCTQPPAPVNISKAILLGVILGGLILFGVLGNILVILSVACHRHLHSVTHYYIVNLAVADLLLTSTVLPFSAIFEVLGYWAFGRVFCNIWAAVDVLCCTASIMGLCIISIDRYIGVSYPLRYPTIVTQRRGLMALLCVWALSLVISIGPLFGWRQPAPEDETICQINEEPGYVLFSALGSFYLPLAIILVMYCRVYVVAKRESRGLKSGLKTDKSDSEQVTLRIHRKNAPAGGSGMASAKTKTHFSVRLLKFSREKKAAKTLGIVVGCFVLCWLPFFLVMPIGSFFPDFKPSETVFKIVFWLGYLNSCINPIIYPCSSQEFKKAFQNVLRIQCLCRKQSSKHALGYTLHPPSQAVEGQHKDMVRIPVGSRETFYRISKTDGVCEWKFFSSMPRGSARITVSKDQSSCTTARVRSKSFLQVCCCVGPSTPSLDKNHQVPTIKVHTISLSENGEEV

[10] = target: T5, Alpha-1B adrenergic receptor (Homo sapiens, UniProt P35368); assay: Displacement of [3H]prazosin from human recombinant alpha-1B adrenergic receptor expressed in CHO cell membranes after 30 mins by liquid scintillation counting method
T5 sequence (P35368 whole entry): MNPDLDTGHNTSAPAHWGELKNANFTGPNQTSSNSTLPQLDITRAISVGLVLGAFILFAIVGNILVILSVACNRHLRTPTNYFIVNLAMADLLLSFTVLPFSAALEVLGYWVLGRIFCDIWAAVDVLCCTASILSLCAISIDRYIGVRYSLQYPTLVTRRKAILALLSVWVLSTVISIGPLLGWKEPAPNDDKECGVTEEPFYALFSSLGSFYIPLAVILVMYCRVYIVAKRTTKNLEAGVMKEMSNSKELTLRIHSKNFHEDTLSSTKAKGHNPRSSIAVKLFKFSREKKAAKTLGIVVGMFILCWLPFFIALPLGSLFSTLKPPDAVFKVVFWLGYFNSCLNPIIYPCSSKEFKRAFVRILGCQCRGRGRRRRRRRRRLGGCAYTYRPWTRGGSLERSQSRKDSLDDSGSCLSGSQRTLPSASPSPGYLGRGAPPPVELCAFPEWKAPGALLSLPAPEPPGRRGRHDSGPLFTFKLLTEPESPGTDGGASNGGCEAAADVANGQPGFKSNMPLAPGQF

[11] = target: T6, Alpha-1D adrenergic receptor (Homo sapiens, UniProt P25100); assay: Displacement of [3H]prazosin from human recombinant alpha-1D adrenergic receptor expressed in CHO cell membranes after 30 mins by liquid scintillation counting method
T6 sequence (P25100 whole entry): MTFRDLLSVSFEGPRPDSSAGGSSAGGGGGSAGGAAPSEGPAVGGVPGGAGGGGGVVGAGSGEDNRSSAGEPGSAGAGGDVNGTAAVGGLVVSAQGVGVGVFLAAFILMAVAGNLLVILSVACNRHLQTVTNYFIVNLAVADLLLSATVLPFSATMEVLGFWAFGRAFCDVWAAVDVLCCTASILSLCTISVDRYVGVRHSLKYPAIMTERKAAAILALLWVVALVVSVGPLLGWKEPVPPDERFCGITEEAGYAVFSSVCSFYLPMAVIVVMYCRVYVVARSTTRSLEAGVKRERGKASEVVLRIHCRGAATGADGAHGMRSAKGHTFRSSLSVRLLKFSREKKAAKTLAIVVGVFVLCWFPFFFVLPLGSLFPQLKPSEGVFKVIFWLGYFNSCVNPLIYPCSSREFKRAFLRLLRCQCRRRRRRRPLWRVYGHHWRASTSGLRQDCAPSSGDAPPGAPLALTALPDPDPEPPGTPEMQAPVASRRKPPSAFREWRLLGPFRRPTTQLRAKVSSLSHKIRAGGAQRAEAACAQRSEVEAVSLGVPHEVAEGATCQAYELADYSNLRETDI

[12] = target: Beta-1 adrenergic receptor (Homo sapiens, UniProt P08588); assay: Displacement of [3H]CGP12177 from human recombinant beta1 adrenergic receptor expressed in HEK293 cell membranes after 90 mins by beta counting method
[13] = target: Beta-2 adrenergic receptor (Homo sapiens, UniProt P07550); assay: Displacement of [3H]CGP12177 from human recombinant beta2 adrenergic receptor expressed in HEK293 cell membranes after 90 mins by beta counting method
[14] = target: Sigma non-opioid intracellular receptor 1 (Cavia porcellus, UniProt Q60492); assay: Displacement of [3H](+)-pentazocine from sigma1 receptor in Hartley guinea pig brain cortex after 120 mins by scintillation counting method
[15] = target: Sodium-dependent dopamine transporter (Rattus norvegicus, UniProt P23977); assay: Displacement of [3H]WIN 35,428 from DAT in Sprague-Dawley rat striatum after 120 mins by scintillation counting method
[16] = target: Sodium-dependent serotonin transporter (Rattus norvegicus, UniProt P31652); assay: Displacement of [3H]-citalopram from SERT in Sprague-Dawley rat midbrain after 60 mins by scintillation counting method
[17] = target: T3, D(4) dopamine receptor; assay: Antagonist activity at human SP/Myc epitope-tagged dopamine D4 receptor expressed in HEK293T cells assessed as inhibition of dopamine-induced RLuc8-fused Galphai1 activation preincubated for 15 mins followed by dopamine induction measured after 2 mins by BRET assay; format: cell-based, HEK-293T
[18] = target: T3, D(4) dopamine receptor; assay: Antagonist activity at human SP/Myc epitope-tagged dopamine D4 receptor expressed in HEK293T cells assessed as inhibition of dopamine-induced mVenus-fused beta-arrestin2 recruitment preincubated for 15 mins followed by dopamine induction measured after 2 mins by BRET assay; format: cell-based, HEK-293T

Sequence of Beta-2 adrenergic receptor (P07550 whole entry): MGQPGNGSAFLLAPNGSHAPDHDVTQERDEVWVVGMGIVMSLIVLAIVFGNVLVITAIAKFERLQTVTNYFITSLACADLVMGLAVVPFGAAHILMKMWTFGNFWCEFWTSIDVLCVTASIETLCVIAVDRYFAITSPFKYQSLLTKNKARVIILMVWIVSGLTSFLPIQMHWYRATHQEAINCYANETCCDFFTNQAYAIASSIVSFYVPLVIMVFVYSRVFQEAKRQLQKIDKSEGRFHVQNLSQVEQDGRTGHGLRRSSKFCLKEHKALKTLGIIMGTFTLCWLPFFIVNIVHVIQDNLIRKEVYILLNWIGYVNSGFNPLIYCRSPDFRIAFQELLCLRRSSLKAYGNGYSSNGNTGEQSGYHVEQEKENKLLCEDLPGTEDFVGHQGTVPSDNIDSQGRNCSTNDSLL
Sequence of Beta-1 adrenergic receptor (P08588 whole entry): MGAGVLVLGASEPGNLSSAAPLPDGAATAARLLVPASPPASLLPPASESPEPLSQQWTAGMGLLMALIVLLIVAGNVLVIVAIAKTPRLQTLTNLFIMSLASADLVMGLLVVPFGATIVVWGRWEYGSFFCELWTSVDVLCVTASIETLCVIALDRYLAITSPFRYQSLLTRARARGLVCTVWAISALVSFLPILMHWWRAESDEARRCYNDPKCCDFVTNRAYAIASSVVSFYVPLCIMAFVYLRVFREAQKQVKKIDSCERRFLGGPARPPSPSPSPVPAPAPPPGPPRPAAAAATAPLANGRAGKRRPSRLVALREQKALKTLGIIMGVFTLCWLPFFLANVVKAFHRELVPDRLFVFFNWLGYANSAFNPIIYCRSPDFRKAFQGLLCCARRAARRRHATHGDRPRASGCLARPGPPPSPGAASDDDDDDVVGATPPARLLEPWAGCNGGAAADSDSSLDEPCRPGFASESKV
Sequence of D(2) dopamine receptor (P14416 whole entry): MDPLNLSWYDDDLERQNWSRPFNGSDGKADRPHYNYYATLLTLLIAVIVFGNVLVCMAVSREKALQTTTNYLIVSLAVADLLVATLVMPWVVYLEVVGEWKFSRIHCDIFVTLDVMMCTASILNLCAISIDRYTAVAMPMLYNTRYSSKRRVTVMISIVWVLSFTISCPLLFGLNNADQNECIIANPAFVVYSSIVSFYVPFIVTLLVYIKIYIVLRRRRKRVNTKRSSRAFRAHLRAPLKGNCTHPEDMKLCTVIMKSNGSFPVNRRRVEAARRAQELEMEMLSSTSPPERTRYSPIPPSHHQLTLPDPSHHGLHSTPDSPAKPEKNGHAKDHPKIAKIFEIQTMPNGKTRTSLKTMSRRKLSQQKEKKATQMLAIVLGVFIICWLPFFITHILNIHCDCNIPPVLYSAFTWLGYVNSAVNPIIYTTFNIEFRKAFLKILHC
Sequence of D(3) dopamine receptor (P35462 whole entry): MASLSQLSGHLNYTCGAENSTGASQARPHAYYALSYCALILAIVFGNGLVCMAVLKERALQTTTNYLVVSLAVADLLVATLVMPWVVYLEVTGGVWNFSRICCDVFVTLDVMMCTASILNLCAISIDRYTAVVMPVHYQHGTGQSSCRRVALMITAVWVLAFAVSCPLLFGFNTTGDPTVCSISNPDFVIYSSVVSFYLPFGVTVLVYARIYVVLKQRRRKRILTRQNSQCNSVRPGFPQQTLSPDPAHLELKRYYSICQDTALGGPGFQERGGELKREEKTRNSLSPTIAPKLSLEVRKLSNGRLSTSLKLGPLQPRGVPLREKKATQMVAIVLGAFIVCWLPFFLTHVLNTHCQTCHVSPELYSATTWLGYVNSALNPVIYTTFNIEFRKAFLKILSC
Sequence of Sigma non-opioid intracellular receptor 1 (Q60492 whole entry): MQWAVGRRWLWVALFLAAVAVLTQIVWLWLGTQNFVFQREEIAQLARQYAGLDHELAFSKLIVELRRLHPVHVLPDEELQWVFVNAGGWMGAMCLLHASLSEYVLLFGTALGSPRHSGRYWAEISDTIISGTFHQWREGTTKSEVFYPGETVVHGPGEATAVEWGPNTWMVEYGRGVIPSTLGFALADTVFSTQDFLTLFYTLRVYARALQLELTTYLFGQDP
Sequence of Sodium-dependent dopamine transporter (P23977 whole entry): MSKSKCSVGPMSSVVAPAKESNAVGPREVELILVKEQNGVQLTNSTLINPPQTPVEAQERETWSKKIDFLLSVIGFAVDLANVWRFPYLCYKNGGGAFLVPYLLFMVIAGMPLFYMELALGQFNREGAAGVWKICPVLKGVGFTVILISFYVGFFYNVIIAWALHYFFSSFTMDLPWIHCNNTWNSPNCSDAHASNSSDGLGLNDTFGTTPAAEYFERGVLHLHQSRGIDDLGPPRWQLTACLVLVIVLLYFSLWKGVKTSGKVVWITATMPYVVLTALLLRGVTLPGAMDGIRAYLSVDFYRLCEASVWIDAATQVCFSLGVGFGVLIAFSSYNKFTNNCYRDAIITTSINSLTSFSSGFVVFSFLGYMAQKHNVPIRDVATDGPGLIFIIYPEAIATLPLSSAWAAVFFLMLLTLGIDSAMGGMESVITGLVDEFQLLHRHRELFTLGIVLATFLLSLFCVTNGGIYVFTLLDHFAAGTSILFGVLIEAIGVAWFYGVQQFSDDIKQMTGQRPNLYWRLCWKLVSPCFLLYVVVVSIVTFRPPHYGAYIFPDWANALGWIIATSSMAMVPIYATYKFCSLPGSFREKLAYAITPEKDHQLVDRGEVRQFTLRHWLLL
Sequence of Sodium-dependent serotonin transporter (P31652 whole entry, the tested form may be a part): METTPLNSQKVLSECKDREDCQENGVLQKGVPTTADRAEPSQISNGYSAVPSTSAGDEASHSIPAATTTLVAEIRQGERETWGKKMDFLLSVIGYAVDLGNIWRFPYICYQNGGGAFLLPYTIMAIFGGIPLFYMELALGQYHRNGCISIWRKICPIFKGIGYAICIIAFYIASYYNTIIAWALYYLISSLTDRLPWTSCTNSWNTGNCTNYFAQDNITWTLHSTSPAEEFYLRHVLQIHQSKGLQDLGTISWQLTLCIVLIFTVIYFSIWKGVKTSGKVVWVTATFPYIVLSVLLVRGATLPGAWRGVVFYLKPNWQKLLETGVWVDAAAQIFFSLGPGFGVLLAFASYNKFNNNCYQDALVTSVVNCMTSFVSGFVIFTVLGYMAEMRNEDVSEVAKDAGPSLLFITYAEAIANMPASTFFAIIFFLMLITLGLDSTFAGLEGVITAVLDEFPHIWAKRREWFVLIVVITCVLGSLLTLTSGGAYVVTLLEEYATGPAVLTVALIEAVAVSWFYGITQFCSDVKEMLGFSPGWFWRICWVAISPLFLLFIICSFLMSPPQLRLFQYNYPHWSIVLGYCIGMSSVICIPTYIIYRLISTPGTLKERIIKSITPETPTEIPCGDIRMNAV

| SMILES | Imax [1] [%] | Imax [2] [%] | Imax [3] [%] | Imax [4] [%] | Ki [5] [nM] | Ki [6] [nM] | Ki [7] [nM] | Ratio Ki [8] | Ki [9] [nM] | Ki [10] [nM] | Ki [11] [nM] | Ki [12] [nM] | Ki [13] [nM] | Ki [14] [nM] | Ki [15] [nM] | Ki [16] [nM] | IC50 [17] [nM] | IC50 [18] [nM] |
| --- | --- | --- | --- | --- | --- | --- | --- | --- | --- | --- | --- | --- | --- | --- | --- | --- | --- | --- |
| CN1[C@@H]2C[C@@H](OC(=O)[C@H](CO)c3ccccc3)C[C@H]1[C@@H]1O[C@H]12 | 71 | 76 | 79 | 73 | – | – | – | – | – | – | – | – | – | – | – | – | – | – |
| CCCCC1CCN(CCCN2C(=O)CCc3ccccc32)CC1 | – | – | – | – | 676 | 617 | 0.977 | 691 | 437 | 776 | 1000 | 47900 | 43700 | 7.24 | 3390 | 8910 | 117 | 6.03 |
